Source: patent EP4789665A1, “TREATMENT OF HIS HYPORESPONDERS” (NewAmsterdam Pharma B.V., priority 2021, dated 2023)

Assay: Phase 2 study of obicetrapib as adjunct to high-intensity statin therapy: safety and tolerability (adverse events, laboratory values, vital signs)
Format: in vivo, human
Conditions: for Neoplasms benign, malignant and unspecified: including cysts and polyps; for AEs, total: subjects (%): safety population
Method: Patients were randomly assigned to receive one of the three treatments investigative treatments. All treatments were to be taken once daily with food for 8 weeks. Safety was assessed throughout the trial by monitoring adverse events and concomitant medication use, 12-lead electrocardiograms (ECGs), vital signs, laboratory safety assessments and physical examinations. Additional assessments included salivary cortisol, plasma aldosterone, high-sensitivity C-reactive protein (hsCRP) and endothelin 1.
Safety and tolerability profiles of obicetrapib assessed by clinical laboratory values and incidence of adverse events (AEs).
The primary outcome measure was LDL-C (percent change). Secondary outcome measures included ApoB, Non-HDL-C and HDL-C (percent change). The Intent-to-Treat (ITT) Population included all participants randomized into the study. The Modified ITT (mITT) Population included all participants in the ITT Population who receive at least 1 dose of any study drug and have a baseline value for the LDL-C assessment. The Safety Population included all participants who receive at least 1 dose of any study drug. The mITT Population was the primary population for the efficacy analyses. The primary efficacy analysis of the percent change in LDL-C was performed using a mixed model for repeated measures (MMRM) approach. In order to maintain the overall Type I error rate, the secondary efficacy endpoints were tested sequentially at the 0.05 significance level according to the pre-specified order of hierarchy. All safety endpoints were summarized descriptively. No statistical inference was applied to the safety endpoints. Plasma obicetrapib concentrations were summarized with descriptive statistics based on the PK Population.

[1] = 5 mg group (N=40), listed as obicetrapib
[2] = 10 mg group (N=40), listed as obicetrapib
[3] = either obicetrapib treatment group (5 mg, 10 mg) compared with placebo

Compound: CCOC(=O)N1c2ccc(C(F)(F)F)cc2[C@@H](N(Cc2cc(C(F)(F)F)cc(C(F)(F)F)c2)c2ncc(OCCCC(=O)O)cn2)C[C@H]1CC [Obicetrapib, (2R,4S)-4-{[3,5-bis(trifluoromethyl)benzyl]-[5-(3-carboxypropoxy)pyrimidin-2-yl]amino}-2-ethyl-6-trifluoromethyl-3,4-dihydro-2H-quinoline-1-carboxylic acid ethyl ester]
- Basal cell carcinoma (5 mg (n=40)): 0 (0.0) n (%)
- Fatigue (5 mg (n=40)): 2 (5.0) n (%)
- Gastrointestinal disorders (5 mg (n=40)): 3 (7.5) n (%)
- General disorders and administration site conditions (5 mg (n=40)): 3 (7.5) n (%)
- Hypertension (5 mg (n=40)): 2 (5.0) n (%)
- Infections and infestations (5 mg (n=40)): 1 (2.5) n (%)
- Injury, poisoning and procedural complications (5 mg (n=40)): 3 (7.5) n (%)
- Investigations (5 mg (n=40)): 2 (5.0) n (%)
- Metabolism and nutrition disorders (5 mg (n=40)): 2 (5.0) n (%)
- Muscle spasms (5 mg (n=40)): 0 (0.0) n (%)
- Musculoskeletal and connective tissue disorders (5 mg (n=40)): 4 (10.0) n (%)
- Nausea (5 mg (n=40)): 1 (2.5) n (%)
- Nervous system disorders (5 mg (n=40)): 2 (5.0) n (%)
- Respiratory, thoracic and mediastinal disorders (5 mg (n=40)): 2 (5.0) n (%)
- Type 2 diabetes mellitus (5 mg (n=40)): 2 (5.0) n (%)
- Vascular disorders (5 mg (n=40)): 2 (5.0) n (%)
- Neoplasms benign, malignant and unspecified (5 mg (n=40)): 0 (0.0) n (%)
- tolerability / safety profile (5 mg and 10 mg on top of high intensity statin therapy): well tolerated with a safety profile similar to placebo
- AEs, related: number of events (5 mg group (N=40)): 2
- AEs, related: subjects (%) (5 mg group (N=40)): 2 (5.0)
- AEs, severe (5 mg group (N=40)): 0
- AEs, total: number of events (5 mg group (N=40)): 24
- Deaths (5 mg group (N=40)): 0
- SAEs, related (5 mg group (N=40)): 0
- SAEs, total (5 mg group (N=40)): 0
- TEAEs leading to discontinuation of study drug (5 mg group (N=40)): 0
- TESAEs leading to discontinuation of study (5 mg group (N=40)): 0
- AEs, total: subjects (%) (5 mg group (N=40)): 13 (32.5)
- AEs, total: subjects (%) [1]: 15
- AEs, related: subjects (%) [1]: 2
- Basal cell carcinoma (10 mg (n=40)): 0 (0.0) n (%)
- Fatigue (10 mg (n=40)): 1 (2.5) n (%)
- Gastrointestinal disorders (10 mg (n=40)): 0 (0.0) n (%)
- General disorders and administration site conditions (10 mg (n=40)): 2 (5.0) n (%)
- Hypertension (10 mg (n=40)): 0 (0.0) n (%)
- Infections and infestations (10 mg (n=40)): 0 (0.0) n (%)
- Injury, poisoning and procedural complications (10 mg (n=40)): 1 (2.5) n (%)
- Investigations (10 mg (n=40)): 0 (0.0) n (%)
- Metabolism and nutrition disorders (10 mg (n=40)): 0 (0.0) n (%)
- Muscle spasms (10 mg (n=40)): 0 (0.0) n (%)
- Musculoskeletal and connective tissue disorders (10 mg (n=40)): 4 (10.0) n (%)
- Nausea (10 mg (n=40)): 0 (0.0) n (%)
- Nervous system disorders (10 mg (n=40)): 2 (5.0) n (%)
- Respiratory, thoracic and mediastinal disorders (10 mg (n=40)): 0 (0.0) n (%)
- Type 2 diabetes mellitus (10 mg (n=40)): 0 (0.0) n (%)
- Vascular disorders (10 mg (n=40)): 0 (0.0) n (%)
- Neoplasms benign, malignant and unspecified (10 mg (n=40)): 0 (0.0) n (%)
- AEs, related: number of events (10 mg group (N=40)): 1
- AEs, related: subjects (%) (10 mg group (N=40)): 1 (2.5)
- AEs, severe (10 mg group (N=40)): 0
- AEs, total: number of events (10 mg group (N=40)): 11
- Deaths (10 mg group (N=40)): 0
- SAEs, related (10 mg group (N=40)): 0
- SAEs, total (10 mg group (N=40)): 0
- TEAEs leading to discontinuation of study drug (10 mg group (N=40)): 0
- TESAEs leading to discontinuation of study (10 mg group (N=40)): 0
- AEs, total: subjects (%) (10 mg group (N=40)): 8 (20.0)
- AEs, total: subjects (%) [2]: 8
- AEs, related: subjects (%) [2]: 1
- laboratory parameters (chemistry, hematology, urinalysis) [3]: no signals in any laboratory parameters
- vital signs [3]: no changes in vital signs
